Here are results for 30 compounds from ChEMBL document CHEMBL5143585, “Discovery and characterization of benzyloxy piperidine based dopamine 4 receptor antagonists” (Bioorg Med Chem Lett, 2022).

The target of one data set is T1, D(4) dopamine receptor (Homo sapiens, UniProt P21917).
T1 sequence (P21917 whole entry): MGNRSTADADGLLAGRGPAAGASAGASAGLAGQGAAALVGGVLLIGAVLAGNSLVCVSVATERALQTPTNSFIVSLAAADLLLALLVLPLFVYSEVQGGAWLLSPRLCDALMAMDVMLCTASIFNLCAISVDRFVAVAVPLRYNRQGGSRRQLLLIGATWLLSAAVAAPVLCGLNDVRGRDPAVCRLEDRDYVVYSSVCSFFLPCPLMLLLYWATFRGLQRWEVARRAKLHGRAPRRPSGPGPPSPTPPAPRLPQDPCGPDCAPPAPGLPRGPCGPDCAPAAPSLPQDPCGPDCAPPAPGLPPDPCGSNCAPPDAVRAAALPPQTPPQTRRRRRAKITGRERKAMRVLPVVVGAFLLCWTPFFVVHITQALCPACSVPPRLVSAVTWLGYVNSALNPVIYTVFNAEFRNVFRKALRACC
Nature of the data set: Displacement of [3H]N-methylspiperone from human D4 receptor expressed in HEK293 cell membrane by competitive inhibition based analysis. It counts as cell membranes.

A further data set deals with D(1B) dopamine receptor (Homo sapiens, UniProt P21918). Nature of the data set: Displacement of [3H]-SCH23390 from human D5 receptor expressed in HEK293 cell membrane at 10 uM by competitive inhibition based analysis. It counts as cell membranes.
Sequence of D(1B) dopamine receptor (P21918 whole entry): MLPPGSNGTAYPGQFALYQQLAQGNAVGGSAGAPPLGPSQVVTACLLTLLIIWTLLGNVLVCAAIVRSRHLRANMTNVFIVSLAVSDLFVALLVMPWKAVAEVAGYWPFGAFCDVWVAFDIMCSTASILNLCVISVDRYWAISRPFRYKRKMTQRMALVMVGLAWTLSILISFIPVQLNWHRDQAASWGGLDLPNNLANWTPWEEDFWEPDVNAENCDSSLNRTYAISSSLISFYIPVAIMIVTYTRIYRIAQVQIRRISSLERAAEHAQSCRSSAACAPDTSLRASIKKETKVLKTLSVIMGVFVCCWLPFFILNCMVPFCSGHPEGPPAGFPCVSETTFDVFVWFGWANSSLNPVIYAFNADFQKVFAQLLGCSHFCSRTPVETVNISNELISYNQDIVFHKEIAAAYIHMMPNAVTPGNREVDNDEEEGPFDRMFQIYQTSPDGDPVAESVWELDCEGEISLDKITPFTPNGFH
A further data set deals with D(3) dopamine receptor (Homo sapiens, UniProt P35462). Nature of the data set: Displacement of [3H]N-methylspiperone from human D3 receptor expressed in HEK293 cell membrane at 10 uM by competitive inhibition based analysis. It counts as cell membranes.
Sequence of D(3) dopamine receptor (P35462 whole entry): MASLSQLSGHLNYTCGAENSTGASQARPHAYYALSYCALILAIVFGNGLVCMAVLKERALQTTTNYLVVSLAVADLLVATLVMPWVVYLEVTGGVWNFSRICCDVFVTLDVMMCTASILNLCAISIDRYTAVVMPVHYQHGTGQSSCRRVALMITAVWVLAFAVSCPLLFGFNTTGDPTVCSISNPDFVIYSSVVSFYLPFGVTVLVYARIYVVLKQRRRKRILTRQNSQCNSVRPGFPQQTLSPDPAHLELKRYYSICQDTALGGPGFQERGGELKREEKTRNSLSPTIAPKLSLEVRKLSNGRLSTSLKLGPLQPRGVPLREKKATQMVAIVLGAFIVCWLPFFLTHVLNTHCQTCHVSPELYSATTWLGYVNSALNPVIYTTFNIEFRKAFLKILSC
For data set [1], the target named is D(2) dopamine receptor (Homo sapiens) (UniProt P14416). The data set is described as follows: Displacement of [3H]N-methylspiperone from human D2 receptor expressed in HEK293 cell membrane at 10 uM by competitive inhibition based analysis. It counts as cell membranes.
Sequence of D(2) dopamine receptor (Homo sapiens) (P14416 whole entry): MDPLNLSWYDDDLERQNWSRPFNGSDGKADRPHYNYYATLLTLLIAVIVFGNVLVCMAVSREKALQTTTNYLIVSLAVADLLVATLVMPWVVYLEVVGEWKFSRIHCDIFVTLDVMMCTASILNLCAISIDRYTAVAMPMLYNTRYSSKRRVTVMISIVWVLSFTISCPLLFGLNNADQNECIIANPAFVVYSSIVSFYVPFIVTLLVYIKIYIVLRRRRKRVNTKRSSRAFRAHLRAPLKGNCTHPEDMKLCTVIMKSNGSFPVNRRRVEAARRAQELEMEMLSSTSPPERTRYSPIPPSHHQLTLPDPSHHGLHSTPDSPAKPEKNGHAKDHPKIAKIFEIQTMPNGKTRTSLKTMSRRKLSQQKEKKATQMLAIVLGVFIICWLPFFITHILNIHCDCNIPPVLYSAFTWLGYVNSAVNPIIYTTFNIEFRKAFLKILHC
A further data set deals with D(1A) dopamine receptor (Homo sapiens, UniProt P21728). The data set is described as follows: Displacement of [3H]-SCH23390 from human D1 receptor expressed in HEK293 cell membrane at 10 uM by competitive inhibition based analysis. In kind it is cell membranes.
Sequence of D(1A) dopamine receptor (P21728 whole entry): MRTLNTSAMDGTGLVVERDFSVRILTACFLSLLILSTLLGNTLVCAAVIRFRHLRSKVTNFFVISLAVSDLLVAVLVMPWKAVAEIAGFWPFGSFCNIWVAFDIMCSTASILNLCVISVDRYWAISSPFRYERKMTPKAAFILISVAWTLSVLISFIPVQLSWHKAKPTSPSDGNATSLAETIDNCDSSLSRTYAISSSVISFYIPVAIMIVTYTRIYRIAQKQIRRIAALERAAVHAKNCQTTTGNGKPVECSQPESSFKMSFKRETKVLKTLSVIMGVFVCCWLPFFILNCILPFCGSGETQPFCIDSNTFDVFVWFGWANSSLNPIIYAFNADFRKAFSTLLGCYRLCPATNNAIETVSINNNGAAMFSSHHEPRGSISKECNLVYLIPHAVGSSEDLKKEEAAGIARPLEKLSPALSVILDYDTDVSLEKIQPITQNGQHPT
Data set [2] in a line: Protein binding in mouse plasma assessed as unbound fraction. In kind it is ADME, cell-free.
Data set [3] in a line: Protein binding in human plasma assessed as unbound fraction. It counts as ADME, cell-free.

Regarding `FC(F)(F)Oc1cccc(CO[C@H]2CCCN(Cc3cn4ccccc4n3)C2)c1`, at D(4) dopamine receptor, the 50% inhibitory concentration (IC50) was 646 nM. Moreover, the Ki on D(4) dopamine receptor was determined as 646 nM. For the same compound, the inhibition (on D(1B) dopamine receptor; on D(3) dopamine receptor; in data set [1]; on D(1A) dopamine receptor) was < 50% each time.
`Cc1ccccc1CO[C@H]1CCCN(Cc2cn3ccccc3n2)C1` had a concentration for half-maximal inhibition (IC50) on D(4) dopamine receptor of 1820 nM. Also, the Ki at D(4) dopamine receptor worked out at 1830 nM. In addition, the inhibition (at D(1B) dopamine receptor; on D(3) dopamine receptor; in data set [1]; at D(1A) dopamine receptor) was < 50% each time.
The compound `Cc1ccc(CO[C@H]2CCCN(Cc3ccc(Cl)c(Cl)c3)C2)cc1` gave a half-inhibitory concentration (IC50) at D(4) dopamine receptor of 1380 nM. Moreover, the Ki on D(4) dopamine receptor was 1390 nM. The inhibition (at D(1B) dopamine receptor; on D(3) dopamine receptor; in data set [1]; on D(1A) dopamine receptor) was < 50% each time.
In the case of `Cc1nc(CN2CCC(OCc3ccc(F)c(F)c3)CC2)c2ccccn12`, on D(4) dopamine receptor, the IC50 was 479 nM. Moreover, the inhibitory constant (Ki) on D(4) dopamine receptor was found to be 478 nM. Moreover, the inhibition (at D(1B) dopamine receptor; at D(3) dopamine receptor; in data set [1]; on D(1A) dopamine receptor) was < 50% in each case.
At D(4) dopamine receptor, `Cc1cc(CO[C@H]2CCCN(Cc3ncn4ccccc34)C2)ccc1F` gave an IC50 of 162 nM. Moreover, on D(4) dopamine receptor, the inhibition constant (Ki) was 166 nM. The inhibition (on D(1B) dopamine receptor; at D(3) dopamine receptor; in data set [1]; on D(1A) dopamine receptor) was < 50% each time.
As to `Fc1ccc(CO[C@H]2CCCN(Cc3cn4ccccc4n3)C2)cc1F`, the Fu in data set [2] is 8.7%; in data set [3], 0.2%. The IC50 on D(4) dopamine receptor was 372 nM. Also, at D(4) dopamine receptor, the Ki is 375 nM. Further, the inhibition (on D(1B) dopamine receptor; at D(3) dopamine receptor; in data set [1]; on D(1A) dopamine receptor) was < 50% each time.
For `Fc1cccc(COC2CCN(Cc3ncn4ccccc34)CC2)c1`, the Fu in data set [2] was 40.5%; in data set [3] it was 2.3%. The compound also had an IC50 on D(4) dopamine receptor of 166 nM. For the same compound, affinity on D(4) dopamine receptor was put at a Ki of 166 nM. Also, the inhibition (at D(1B) dopamine receptor; on D(3) dopamine receptor; in data set [1]; on D(1A) dopamine receptor) was < 50% in each case.
On D(4) dopamine receptor, `FC(F)(F)c1cccc(COC2CCN(Cc3ccc4[nH]ncc4c3)CC2)c1` showed an IC50 of 851 nM and an inhibitory constant (Ki) of 860 nM.
With `Fc1cc(COC2CCN(Cc3ccc4[nH]ncc4c3)CC2)ccc1Cl`, on D(4) dopamine receptor, the IC50 is 575 nM and the affinity, expressed as Ki, was 580 nM.
For `Cn1cnc2cc(CN3CCC(OCc4ccc(F)c(F)c4)CC3)ccc21`, at D(4) dopamine receptor, the half-maximal inhibitory concentration (IC50) was 1410 nM and the affinity, expressed as Ki, was 1400 nM.
`COc1ccc(CN2CCC[C@H](OCc3ccccc3C)C2)cc1F` had an IC50 on D(4) dopamine receptor of 347 nM. This compound also returned an inhibition constant Ki at D(4) dopamine receptor of 343 nM. For the same compound, the inhibition (on D(1B) dopamine receptor; on D(3) dopamine receptor; in data set [1]; at D(1A) dopamine receptor) was < 50% each time.
For the compound `Cn1ncc2cc(CN3CCC(OCc4ccc(Cl)c(F)c4)CC3)ccc21`, the Fu in data set [2] was 5.2%; in data set [3], 0.9%. Moreover, the IC50 on D(4) dopamine receptor was 170 nM. Also, the Ki on D(4) dopamine receptor came out at 170 nM. Further, the inhibition (at D(1B) dopamine receptor; on D(3) dopamine receptor; in data set [1]; at D(1A) dopamine receptor) was < 50% throughout.
With `Fc1cccc(CO[C@H]2CCCN(Cc3cn4ccccc4n3)C2)c1`, the half-maximal inhibitory concentration (IC50) on D(4) dopamine receptor is 1950 nM. Besides, at D(4) dopamine receptor, the Ki worked out at 1940 nM. Besides, the inhibition (at D(1B) dopamine receptor; at D(3) dopamine receptor; in data set [1]; at D(1A) dopamine receptor) was < 50% each time.
`COc1ccc(CN2CCC[C@H](OCc3ccc(F)c(F)c3)C2)cc1F`: the Fu in data set [2] stood at 2.6%; in data set [3], 1.1%. On D(4) dopamine receptor, this compound had a concentration for half-maximal inhibition (IC50) of 170 nM. Also, at D(4) dopamine receptor, the inhibitory constant (Ki) turned out to be 169 nM. In addition, the inhibition (on D(1B) dopamine receptor; on D(3) dopamine receptor; in data set [1]; at D(1A) dopamine receptor) was < 50% in each case.
On to `Fc1ccc(CO[C@H]2CCCN(Cc3ncn4ccccc34)C2)cc1F`, for which the Fu is on record as 18.1% in data set [2] and 3.9% in data set [3]. For the same compound, the IC50 on D(4) dopamine receptor is 447 nM. On D(4) dopamine receptor, this compound came in with a Ki of 447 nM. The inhibition (at D(1B) dopamine receptor; on D(3) dopamine receptor; in data set [1]; on D(1A) dopamine receptor) was < 50% throughout.
In the case of `Cc1nc(CN2CCC(OCc3ccc(Cl)c(F)c3)CC2)c2ccccn12`, the results for the Fu in data set [2] and in data set [3] were 13.2% and 7.1%, respectively. In addition, the concentration for half-maximal inhibition (IC50) at D(4) dopamine receptor was 95.5 nM. Moreover, at D(4) dopamine receptor, the inhibitory constant (Ki) turned out to be 95.5 nM. Also, the inhibition (at D(1B) dopamine receptor; at D(3) dopamine receptor; in data set [1]; at D(1A) dopamine receptor) was < 50% in each case.
Turning to `Fc1cccc(COC2CCN(Cc3cn4ccccc4n3)CC2)c1`, the Fu is reported as 35.5% in data set [2] and 7% in data set [3]. The IC50 at D(4) dopamine receptor was 166 nM. For the same compound, the affinity at D(4) dopamine receptor corresponds to a Ki of 167 nM. The inhibition (on D(1B) dopamine receptor; at D(3) dopamine receptor; in data set [1]; at D(1A) dopamine receptor) was < 50% throughout.
As for `Cc1cc(CO[C@H]2CCCN(Cc3cn4ccccc4n3)C2)ccc1F`, the 50% inhibitory concentration (IC50) at D(4) dopamine receptor was 186 nM. Also, the inhibition constant (Ki) on D(4) dopamine receptor worked out at 187 nM. The inhibition (at D(1B) dopamine receptor; on D(3) dopamine receptor; in data set [1]; at D(1A) dopamine receptor) was < 50% throughout.
Consider `COc1ccc(CN2CCC[C@@H](OCc3ccc(F)c(C)c3)C2)cc1F`, for which, at D(4) dopamine receptor, the 50% inhibitory concentration (IC50) is 2000 nM and the inhibitory constant (Ki) was determined as 1980 nM.
The compound `COc1ccc(CN2CCC[C@H](OCc3ccc(C)cc3)C2)cc1F` gave a half-maximal inhibitory concentration (IC50) on D(4) dopamine receptor of 240 nM. Also, on D(4) dopamine receptor, the Ki was 241 nM. Further, the inhibition (at D(1B) dopamine receptor; on D(3) dopamine receptor; in data set [1]; on D(1A) dopamine receptor) was < 50% in each case.
`COc1ccc(CN2CCC[C@H](OCc3cccc(C)n3)C2)cc1F`: the IC50 on D(4) dopamine receptor was 1050 nM. Besides, the inhibition constant Ki at D(4) dopamine receptor was found to be 1040 nM. Besides, the inhibition (at D(1B) dopamine receptor; on D(3) dopamine receptor; in data set [1]; on D(1A) dopamine receptor) was < 50% each time.
For `FC(F)(F)c1cccc(COC2CCN(Cc3ncc4ccccn34)CC2)c1`, the concentration for half-maximal inhibition (IC50) at D(4) dopamine receptor is 209 nM. This compound also returned an inhibitory constant (Ki) at D(4) dopamine receptor of 208 nM. Besides, the inhibition (at D(1B) dopamine receptor; on D(3) dopamine receptor; in data set [1]; at D(1A) dopamine receptor) was < 50% throughout.
`Cc1ccc(CN2CCC[C@H](OCc3ccc(F)c(C)c3)C2)cc1` gave an IC50 on D(4) dopamine receptor of 166 nM. This compound registered a Ki on D(4) dopamine receptor of 165 nM. The inhibition (on D(1B) dopamine receptor; at D(3) dopamine receptor; in data set [1]; on D(1A) dopamine receptor) was < 50% in each case.
As to `Fc1cccc(CO[C@H]2CCCN(Cc3ncn4ccccc34)C2)c1`, the half-inhibitory concentration (IC50) on D(4) dopamine receptor was 1350 nM. The inhibition constant Ki at D(4) dopamine receptor stood at 1340 nM. Further, the inhibition (on D(1B) dopamine receptor; on D(3) dopamine receptor; in data set [1]; on D(1A) dopamine receptor) was < 50% throughout.
Turning to `Cc1ccc(CO[C@H]2CCCN(Cc3ccc(C#N)cc3)C2)cc1`, on D(4) dopamine receptor, the concentration for half-maximal inhibition (IC50) is 1020 nM. The Ki on D(4) dopamine receptor is 1010 nM. Further, the inhibition (on D(1B) dopamine receptor; on D(3) dopamine receptor; in data set [1]; at D(1A) dopamine receptor) was < 50% in each case.
`COc1ccc(CN2CCC[C@H](OCc3cccc(F)c3)C2)cc1F`: at D(4) dopamine receptor, the IC50 is 204 nM. The compound further returned a Ki at D(4) dopamine receptor of 206 nM. The inhibition (on D(1B) dopamine receptor; on D(3) dopamine receptor; in data set [1]; on D(1A) dopamine receptor) was < 50% each time.
Regarding `Fc1ccc(COC2CCN(Cc3ccc4[nH]ncc4c3)CC2)cc1F`, on D(4) dopamine receptor, the IC50 is 1740 nM and the inhibitory constant (Ki) is 1730 nM.
The compound `COc1ccc(CN2CCC[C@H](OCc3ccc(F)c(C)c3)C2)cc1F` gave a 50% inhibitory concentration (IC50) on D(4) dopamine receptor of 135 nM. At D(4) dopamine receptor, this compound had a Ki of 135 nM. Also, the inhibition (on D(1B) dopamine receptor; at D(3) dopamine receptor; in data set [1]; at D(1A) dopamine receptor) was < 50% each time.
Regarding `Cc1cccc(CO[C@H]2CCCN(Cc3cc4ccc(Cl)cc4[nH]3)C2)n1`, the 50% inhibitory concentration (IC50) at D(4) dopamine receptor is 316 nM. On D(4) dopamine receptor, the affinity corresponds to a Ki of 319 nM. The inhibition (at D(1B) dopamine receptor; on D(3) dopamine receptor; in data set [1]; at D(1A) dopamine receptor) was < 50% in each case.
The compound `Fc1ccc(COC2CCN(Cc3ncc4ccccn34)CC2)cc1F` gave a half-maximal inhibitory concentration (IC50) at D(4) dopamine receptor of 214 nM. The compound further displayed a Ki at D(4) dopamine receptor of 215 nM. Also, the inhibition (at D(1B) dopamine receptor; at D(3) dopamine receptor; in data set [1]; at D(1A) dopamine receptor) was < 50% each time.
